“Also recorded” adds a separate entry of the source. Starred links: 1 amine or outer side, 2 acyl side, 3 side chain; linkers in the order of their positions; H or OH if unused. Positions of bridges follow the written chain, without caps; N, C: chain ends. Non-standard residues stand in square brackets, D forms with d. Residues, ends and D or L forms follow the SMILES beside them. Chains are numbered I, II in the order given. Actinocin(9to1) = Cc1c2oc3c(C)ccc(C(=O)[*:1])c3nc-2c(C(=O)[*:2])c(N)c1=O; NMeV = CN[C@H](C(=O)O)C(C)C; Sar = CNCC(=O)O
Legend:
[1] = tested on: SP-B protein levels in A549 cells; experiment: SP-B protein levels in A549 cells (Western blot); assay type: cell-based; conditions: cycloheximide 5 :g/ml, concomitant with ADRP-LDs
Protocol: (§1) Monolayer cultures of A549 cells were incubated with ADRP-LDs labeled with either tritium or GFP as follows: ^3H-labeled (10,000 dpm/min/20 μg triacylglycerol) ADRP-LDs were isolated from fetal rat lung fibroblasts, as described above. Where indicated, incubations were carried out in the presence of either actinomycin D or cyclohexamide to determine if de novo mRNA or protein synthesis, respectively, was involved in LD processing. Elsewhere, incubations were conducted in the presence of ADRP antibody (rabbit anti-ADRP IgG kindly provided by Dr. Constantine Londos, NIDDK) to determine the specificity of the ADRP effect on LD uptake. At the end of the incubation, the cells were processed for ^3H-satPC (Floros et al. (1987) J Biol Chem. 262(28): 13592-13598), expression of SP-B by RT-PCR and Western Blot (Rehan et al. (2002) Mol Genet Metab. 76(1): 46-56), or for confocal microscopy (see below for method).
(§2) Western blot and RT-PCR for SP-B were performed as described by Rehan et al. (2002) Mol Genet Metab. 76(1): 46-56.

[2] = tested on: SP-B mRNA expression by A549 cells; experiment: SP-B mRNA expression by A549 cells (RT-PCR); assay type: cell-based; conditions: actinomycin D 1 μg/ml, concomitant incubation with LDs
Protocol: as §1, §2

Structure (SMILES) | effect on ADRP-LD-stimulated SP-B protein increase [1] | effect on ADRP induction of SP-B mRNA expression [2]
C[C@@H]1C[C@@H]([C@H](O)CC2CC(=O)NC(=O)C2)C(=O)[C@@H](C)C1 [cycloheximide] | blocked; also recorded: inhibited | –
Cc1c2oc3c(C)ccc(C(=O)N[C@@H]4C(=O)N[C@H](C(C)C)C(=O)N5CCC[C@H]5C(=O)N(C)CC(=O)N(C)[C@@H](C(C)C)C(=O)O[C@@H]4C)c3nc-2c(C(=O)N[C@@H]2C(=O)N[C@H](C(C)C)C(=O)N3CCC[C@H]3C(=O)N(C)CC(=O)N(C)[C@@H](C(C)C)C(=O)O[C@@H]2C)c(N)c1=O [Actinomycin D] (I: T[dV]P[Sar][NMeV] / II: T[dV]P[Sar][NMeV]; ester I:1-I:C, II:1-II:C; linker I:N-II:N via Actinocin(9to1)) | – | blocked

From patent US8066971B2, “Targeting pulmonary epithelium using ADRP” (Los Angeles Biomedical Reseach Institute at Harbor UCLA …, priority 2005, dated 2011)
